Experimental findings from patent publication US20220396569A1 (Carmot Therapeutics, Inc., priority 2021, published 2022) are described below.

Where only a bound is given, the exact number is not on record here.

The assay deals with T1, human GLP-1 receptor (Homo sapiens, UniProt P43220).
T1 construct: expressed in transfected cells
T1 sequence (P43220 24-463): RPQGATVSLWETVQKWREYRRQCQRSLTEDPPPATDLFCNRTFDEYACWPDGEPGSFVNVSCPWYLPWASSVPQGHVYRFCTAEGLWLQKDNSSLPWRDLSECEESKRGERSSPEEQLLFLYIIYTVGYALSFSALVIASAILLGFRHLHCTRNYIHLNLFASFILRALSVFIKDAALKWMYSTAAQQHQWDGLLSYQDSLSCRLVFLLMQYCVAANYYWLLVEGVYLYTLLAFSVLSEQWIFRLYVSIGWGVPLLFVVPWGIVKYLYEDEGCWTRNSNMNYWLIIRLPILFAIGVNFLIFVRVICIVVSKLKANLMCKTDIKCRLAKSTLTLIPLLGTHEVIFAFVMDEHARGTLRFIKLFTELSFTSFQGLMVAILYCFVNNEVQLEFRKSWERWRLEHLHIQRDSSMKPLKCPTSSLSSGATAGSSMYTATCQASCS
Briefly: GLP-1R cAMP Assay (HitHunter cAMP accumulation). Format: cell-based. Particulars: cAMP accumulation, CHO cells stably overexpressing human GLP-1 receptor, 30 min treatment; read-out: EC50. An outline of the steps:
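CHO cells stably expressing human GLP-1R, 10,000 cells/well in HBSS with 10 mM HEPES and 625 μM IBMX, were mixed with anti-cAMP antibody reagent. Compound was applied as a 20-point dose response in triplicate for 30 min. After lysis and overnight detection, luminescence was read and dose-response curves analysed.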
As for `O=C(O)c1ccc2nc(CN3CCC(Cn4ccc(COc5ccc(Cl)cc5Cl)n4)CC3)n(C[C@@H]3CCO3)c2c1` [Example 127, (S)-2-((4-((3-((2,4-dichlorophenoxy)methyl)-1H-pyrazol-1-yl)methyl)piperidin-1-yl)methyl)-1-(oxetan-2-ylmethyl)-1H-benzo[d]imidazole-6-carboxylic acid], the 50% effective concentration (EC50) is below 0.05 µM. The value for `CCn1cncc1Cn1c(CN2CC(Cc3cnc(COc4ccc(Cl)cc4Cl)o3)C2)nc2ccc(C(=O)O)cc21` [Example 147, 2-((3-((2-((2,4-Dichlorophenoxy)methyl)oxazol-5-yl)methyl)azetidin-1-yl)methyl)-1-((1-ethyl-1H-imidazol-5-yl)methyl)-1H-benzo[d]imidazole-6-carboxylic acid] was below 0.05 µM; that for `CC1(c2ccc(Cl)cn2)Oc2cccc(CC3CCN(Cc4nc5ccc(C(=O)O)cc5n4C[C@@H]4CCO4)CC3)c2O1` (stereo partly drawn) [Example 173, 2-((4-((2-(5-Chloropyridin-2-yl)-2-methylbenzo[d][1,3]dioxol-4-yl)methyl)piperidin-1-yl)methyl)-1-(((S)-oxetan-2-yl)methyl)-1H-benzo[d]imidazole-6-carboxylic acid] was 0.05 to 0.5 µM. Take `O=C(O)c1ccc2nc(CN3CC(Cc4ccnc(COc5ccc(Cl)cc5Cl)c4)C3)n(C[C@@H]3CCO3)c2c1` [Example 177, (S)-2-((3-((2-((2,4-Dichlorophenoxy)methyl)pyridin-4-yl)methyl)azetidin-1-yl)methyl)-1-(oxetan-2-ylmethyl)-1H-benzo[d]imidazole-6-carboxylic acid]: the EC50 is below 0.05 µM. Turning to `O=C(O)c1ccc2nc(CN3CC(Oc4cccc(COc5ccc(Cl)cc5Cl)c4)C3)n(C[C@@H]3CCO3)c2c1` [Example 192, (S)-2-((3-(3-((2,4-Dichlorophenoxy)methyl)phenoxy)azetidin-1-yl)methyl)-1-(oxetan-2-ylmethyl)-1H-benzo[d]imidazole-6-carboxylic acid], the EC50 is below 0.05 µM. Turning to `N#Cc1cc(Cl)ccc1OCc1cc(OC2CN(Cc3nc4ccc(C(=O)O)cc4n3C[C@@H]3CCO3)C2)ccn1` [Example 193, (S)-2-((3-((2-((4-Chloro-2-cyanophenoxy)methyl)pyridin-4-yl)oxy)azetidin-1-yl)methyl)-1-(oxetan-2-ylmethyl)-1H-benzo[d]imidazole-6-carboxylic acid], the EC50 was below 0.05 µM.

As to `CCn1cncc1Cn1c(CN2CC(Cc3cccc(COc4ccc(Cl)cc4Cl)c3)C2)nc2ccc(C(=O)O)cc21` [Example 197, 2-((3-(3-((2,4-Dichlorophenoxy)methyl)benzyl)azetidin-1-yl)methyl)-1-((1-ethyl-1H-imidazol-5-yl)methyl)-1H-benzo[d]imidazole-6-carboxylic acid], the EC50 is below 0.05 µM.

Consider `CC1(c2ccc(Cl)cc2F)Oc2cccc(CC3CCN(Cc4nc5ccc(C(=O)O)cc5n4C[C@@H]4CCO4)CC3)c2O1` (stereo partly drawn) [Example 201, 2-((4-((2-(4-Chloro-2-fluorophenyl)-2-methylbenzo[d][1,3]dioxol-4-yl)methyl)piperidin-1-yl)methyl)-1-(((S)-oxetan-2-yl)methyl)-1H-benzo[d]imidazole-6-carboxylic acid], for which the EC50 was in the range of 0.05 to 0.5 µM.

In the case of `O=C(O)c1ccc2nc(CN3CC(Oc4cnc(COc5ccc(Cl)cc5Cl)o4)C3)n(C[C@@H]3CCO3)c2c1` [Example 213, (S)-2-((3-((2-((2,4-Dichlorophenoxy)methyl)oxazol-5-yl)oxy)azetidin-1-yl)methyl)-1-(oxetan-2-ylmethyl)-1H-benzo[d]imidazole-6-carboxylic acid], the EC50 is below 0.05 µM. Consider `O=C(O)c1ccc2nc(CN3CC(Oc4ccnc(COc5ccc(Cl)cc5Cl)c4)C3)n(Cc3cnco3)c2c1` [Example 219, 2-((3-((2-((2,4-Dichlorophenoxy)methyl)pyridin-4-yl)oxy)azetidin-1-yl)methyl)-1-(oxazol-5-ylmethyl)-1H-benzo[d]imidazole-6-carboxylic acid], for which the EC50 was below 0.05 µM. The value for `CCn1cncc1Cn1c(CN2C[C@H](Oc3cccc(COc4ccc(Cl)cc4Cl)c3)[C@@H]2C)nc2ccc(C(=O)O)cc21` [Example 233, 2-(((2S,3S)-3-(3-((2,4-Dichlorophenoxy)methyl)phenoxy)-2-methylazetidin-1-yl)methyl)-1-((1-ethyl-1H-imidazol-5-yl)methyl)-1H-benzo[d]imidazole-6-carboxylic acid] was below 0.05 µM; that for `CCn1cncc1Cn1c(CN2CC[C@H](Oc3ccnc(COc4ccc(Cl)cc4Cl)c3)C2)nc2ccc(C(=O)O)cc21` [Example 244, (S)-2-((3-((2-((2,4-Dichlorophenoxy)methyl)pyridin-4-yl)oxy)pyrrolidin-1-yl)methyl)-1-((1-ethyl-1H-imidazol-5-yl)methyl)-1H-benzo[d]imidazole-6-carboxylic acid] was below 0.05 µM; that for `CCn1cncc1Cn1c(CN2CCC(Cn3ccc(COc4ccc(Cl)cc4Cl)n3)CC2)nc2ccc(C(=O)O)cc21` [Example 281, 2-((4-((3-((2,4-Dichlorophenoxy)methyl)-1H-pyrazol-1-yl)methyl)piperidin-1-yl)methyl)-1-((1-ethyl-1H-imidazol-5-yl)methyl)-1H-benzo[d]imidazole-6-carboxylic acid] was below 0.05 µM. The value for `O=C(O)c1ccc2nc(CN3CC[C@H](Oc4ccnc(COc5ccc(Cl)cc5F)n4)C3)n(C[C@@H]3CCO3)c2c1` [Example 360, 2-(((S)-3-((2-((4-Chloro-2-fluorophenoxy)methyl)pyrimidin-4-yl)oxy)pyrrolidin-1-yl)methyl)-1-(((S)-oxetan-2-yl)methyl)-1H-benzo[d]imidazole-6-carboxylic acid] was below 0.05 µM. In the case of `O=C(O)c1ccc2nc(CN3CCC(c4cccc(COc5ccc(Cl)cc5Cl)c4)C3)n(C[C@@H]3CCO3)c2c1` (stereo partly drawn) [Example 383, 2-((3-(3-((2,4-Dichlorophenoxy)methyl)phenyl)pyrrolidin-1-yl)methyl)-1-(((S)-oxetan-2-yl)methyl)-1H-benzo[d]imidazole-6-carboxylic acid] it was below 0.05 µM.

Consider `O=C(O)c1ccc2nc(CN3CC=C(c4cccc(COc5ccc(Cl)cc5Cl)n4)C3)n(C[C@@H]3CCO3)c2c1` [Example 384, (S)-2-((3-(6-((2,4-Dichlorophenoxy)methyl)pyridin-2-yl)-2,5-dihydro-1H-pyrrol-1-yl)methyl)-1-(oxetan-2-ylmethyl)-1H-benzo[d]imidazole-6-carboxylic acid], for which the EC50 is below 0.05 µM.

With `O=C(O)c1ccc2nc(CN3CCC(c4cccc(COc5ccc(Cl)cc5Cl)n4)C3)n(C[C@@H]3CCO3)c2c1` (stereo partly drawn) [Example 386, 2-((3-(6-((2,4-Dichlorophenoxy)methyl)pyridin-2-yl)pyrrolidin-1-yl)methyl)-1-(((S)-oxetan-2-yl)methyl)-1H-benzo[d]imidazole-6-carboxylic acid], the EC50 was below 0.05 µM. The value for `O=C(O)c1ccc2nc(CN3CC=C(c4cc(COc5ccc(Cl)cc5Cl)ccn4)C3)n(Cc3cnco3)c2c1` [Example 390, 2-((3-(4-((2,4-Dichlorophenoxy)methyl)pyridin-2-yl)-2,5-dihydro-1H-pyrrol-1-yl)methyl)-1-(oxazol-5-ylmethyl)-1H-benzo[d]imidazole-6-carboxylic acid] was below 0.05 µM.
